Test results from US20190119298A1, “FUSED 3-PHENYLTETRAMIC ACID DERIVATIVES HAVING HERBICIDAL ACTION” (Bayer CropScience Aktiengesellschaft, priority 2016, published 2019).

Columns and labels:
Type in all cases: in vivo
[1] = system: Avena fatua; experiment: Pre-emergence herbicidal effect; conditions: 320 g/ha, scored visually after 3 weeks vs untreated controls, 100% = plants have died
Text: (§1) Seeds of monocotyledonous and dicotyledonous weed plants and crop plants are laid out in sandy loam soil in wood-fibre pots and covered with soil. The compounds of the invention, formulated in the form of wettable powders (WP) or as emulsion concentrates (EC), are then applied to the surface of the covering soil as aqueous suspension or emulsion at a water application rate equating to 600 to 800 L/ha with addition of 0.2% wetting agent. After the treatment, the pots are placed in a greenhouse and kept under good growth conditions for the trial plants. The damage to the test plants is scored visually after a test period of 3 weeks by comparison with untreated controls (herbicidal activity in percent (%): 100% activity=the plants have died, 0% activity=like control plants). AVEFA: Avena fatua

[2] = system: Alopecurus myosuroides; experiment: Pre-emergence herbicidal effect; conditions: 320 g/ha, scored visually after 3 weeks vs untreated controls, 100% = plants have died
Text: as §1, with “ALOMY: Alopecurus myosuroides” for “AVEFA: Avena fatua”

[3] = system: Echinochloa crus-galli; experiment: Pre-emergence herbicidal effect; conditions: 320 g/ha, scored visually after 3 weeks vs untreated controls, 100% = plants have died
Text: as §1, with “ECHCG: Echinochloa crus-galli” for “AVEFA: Avena fatua”

[4] = system: Lolium multiflorum; experiment: Pre-emergence herbicidal effect; conditions: 320 g/ha, scored visually after 3 weeks vs untreated controls, 100% = plants have died
Text: as §1, with “LOLMU: Lolium multiflorum” for “AVEFA: Avena fatua”

[5] = system: Alopecurus myosuroides; experiment: Post-emergence herbicidal effect; conditions: one-leaf stage, 320 g/ha, assessed visually after about 3 weeks, 100% = plants have died
Protocol: (§2) ALOMY: Alopecurus myosuroides Seeds of monocotyledonous and dicotyledonous weed and crop plants are laid out in sandy loam soil in wood-fibre pots, covered with soil and cultivated in a greenhouse under good growth conditions. 2 to 3 weeks after sowing, the test plants are treated at the one-leaf stage. The compounds of the invention, formulated in the form of wettable powders (WP) or as emulsion concentrates (EC), are then sprayed onto the green parts of the plants as aqueous suspension or emulsion at a water application rate equating to 600 to 800 L/ha with addition of 0.2% wetting agent. After the test plants have been left to stand in the greenhouse under optimal growth conditions for about 3 weeks, the action of the preparations is assessed visually in comparison to untreated controls (herbicidal action in percent (%): 100% activity=the plants have died, 0% activity=like control plants).

[6] = system: Setaria viridis; experiment: Pre-emergence herbicidal effect; conditions: 320 g/ha, scored visually after 3 weeks vs untreated controls, 100% = plants have died
Text: as §1, with “SETVI: Setaria viridis” for “AVEFA: Avena fatua”

[7] = system: Avena fatua; experiment: Post-emergence herbicidal effect; conditions: one-leaf stage, 320 g/ha, assessed visually after about 3 weeks, 100% = plants have died
Protocol: as §2, with “AVEFA: Avena fatua” for “ALOMY: Alopecurus myosuroides”

[8] = system: Lolium multiflorum; experiment: Post-emergence herbicidal effect; conditions: one-leaf stage, 320 g/ha, assessed visually after about 3 weeks, 100% = plants have died
Protocol: as §2, with “LOLMU: Lolium multiflorum” for “ALOMY: Alopecurus myosuroides”

[9] = system: Setaria viridis; experiment: Post-emergence herbicidal effect; conditions: one-leaf stage, 320 g/ha, assessed visually after about 3 weeks, 100% = plants have died
Protocol: as §2, with “SETVI: Setaria viridis” for “ALOMY: Alopecurus myosuroides”

[10] = system: Echinochloa crus-galli; experiment: Post-emergence herbicidal effect; conditions: one-leaf stage, 320 g/ha, assessed visually after about 3 weeks, 100% = plants have died
Protocol: as §2, with “ECHCG: Echinochloa crus-galli” for “ALOMY: Alopecurus myosuroides”

Structure (SMILES): CC(=O)OC1=C(c2c(C)cc(C)cc2C)C(=O)N2CCOCCC12 (stereo not drawn) [Ib-1-12]
- Pre-emergence action AVEFA (herbicidal activity in percent) [1]: 90%
- Pre-emergence action ALOMY (herbicidal activity in percent) [2]: 100%
- Pre-emergence action ECHCG (herbicidal activity in percent) [3]: 100%
- Pre-emergence action LOLMU (herbicidal activity in percent) [4]: 100%
- Post-emergence effectiveness ALOMY (herbicidal action in percent) [5]: 100%
- Pre-emergence action SETVI (herbicidal activity in percent) [6]: 100%
- Post-emergence effectiveness AVEFA (herbicidal action in percent) [7]: 100%
- Post-emergence effectiveness LOLMU (herbicidal action in percent) [8]: 100%
- Post-emergence effectiveness SETVI (herbicidal action in percent) [9]: 100%
- Post-emergence effectiveness ECHCG (herbicidal action in percent) [10]: 100%

Structure (SMILES): CCc1cc(Cl)cc(OC)c1C1=C(O)C2=CCOCCN2C1=O [Ia-3-4]
- Pre-emergence action AVEFA (herbicidal activity in percent) [1]: 80%
- Pre-emergence action ALOMY (herbicidal activity in percent) [2]: 80%
- Pre-emergence action ECHCG (herbicidal activity in percent) [3]: 90%
- Pre-emergence action LOLMU (herbicidal activity in percent) [4]: 90%
- Post-emergence effectiveness ALOMY (herbicidal action in percent) [5]: 100%
- Pre-emergence action SETVI (herbicidal activity in percent) [6]: 100%
- Post-emergence effectiveness AVEFA (herbicidal action in percent) [7]: 100%
- Post-emergence effectiveness LOLMU (herbicidal action in percent) [8]: 100%
- Post-emergence effectiveness SETVI (herbicidal action in percent) [9]: 100%
- Post-emergence effectiveness ECHCG (herbicidal action in percent) [10]: 100%

Structure (SMILES): CCOC(=O)OC1=C(c2c(C)cc(C)cc2CC)C(=O)N2CCOCCC12 (stereo not drawn) [Ib-1-7]
- Pre-emergence action AVEFA (herbicidal activity in percent) [1]: 100%
- Pre-emergence action ALOMY (herbicidal activity in percent) [2]: 100%
- Pre-emergence action ECHCG (herbicidal activity in percent) [3]: 100%
- Pre-emergence action LOLMU (herbicidal activity in percent) [4]: 100%
- Post-emergence effectiveness ALOMY (herbicidal action in percent) [5]: 100%
- Pre-emergence action SETVI (herbicidal activity in percent) [6]: 100%
- Post-emergence effectiveness AVEFA (herbicidal action in percent) [7]: 100%
- Post-emergence effectiveness LOLMU (herbicidal action in percent) [8]: 100%
- Post-emergence effectiveness SETVI (herbicidal action in percent) [9]: 100%
- Post-emergence effectiveness ECHCG (herbicidal action in percent) [10]: 100%

Structure (SMILES): CCOC(=O)OC1=C(c2c(CC)cc(Cl)cc2OC)C(=O)N2CCOCCC12 (stereo not drawn) [Ib-1-17]
- Pre-emergence action AVEFA (herbicidal activity in percent) [1]: 100%
- Pre-emergence action ALOMY (herbicidal activity in percent) [2]: 100%
- Pre-emergence action ECHCG (herbicidal activity in percent) [3]: 100%
- Post-emergence effectiveness ALOMY (herbicidal action in percent) [5]: 100%
- Pre-emergence action SETVI (herbicidal activity in percent) [6]: 100%
- Post-emergence effectiveness AVEFA (herbicidal action in percent) [7]: 100%
- Post-emergence effectiveness LOLMU (herbicidal action in percent) [8]: 100%
- Post-emergence effectiveness SETVI (herbicidal action in percent) [9]: 100%
- Post-emergence effectiveness ECHCG (herbicidal action in percent) [10]: 100%

Structure (SMILES): CCc1cc(Cl)cc(OC)c1C1=C(OC(=O)C(C)(C)C)C2=CCOCCN2C1=O [Ib-3-10]
- Pre-emergence action ALOMY (herbicidal activity in percent) [2]: 90%
- Pre-emergence action ECHCG (herbicidal activity in percent) [3]: 100%
- Pre-emergence action LOLMU (herbicidal activity in percent) [4]: 100%
- Post-emergence effectiveness ALOMY (herbicidal action in percent) [5]: 100%
- Pre-emergence action SETVI (herbicidal activity in percent) [6]: 100%
- Post-emergence effectiveness AVEFA (herbicidal action in percent) [7]: 100%
- Post-emergence effectiveness LOLMU (herbicidal action in percent) [8]: 100%
- Post-emergence effectiveness SETVI (herbicidal action in percent) [9]: 100%
- Post-emergence effectiveness ECHCG (herbicidal action in percent) [10]: 100%

Structure (SMILES): Cc1cc(C)c(C2=C(O)C3COCCCN3C2=O)c(C)c1 (racemic) [Ia-2-1]
- Pre-emergence action ALOMY (herbicidal activity in percent) [2]: 80%
- Pre-emergence action LOLMU (herbicidal activity in percent) [4]: 100%
- Post-emergence effectiveness ALOMY (herbicidal action in percent) [5]: 100%
- Post-emergence effectiveness AVEFA (herbicidal action in percent) [7]: 100%
- Post-emergence effectiveness LOLMU (herbicidal action in percent) [8]: 100%
- Post-emergence effectiveness SETVI (herbicidal action in percent) [9]: 100%
- Post-emergence effectiveness ECHCG (herbicidal action in percent) [10]: 100%

Structure (SMILES): CCc1cccc(C)c1C1=C(OC(C)=O)C2CCOCCN2C1=O (stereo not drawn) [Ib-1-15]
- Pre-emergence action ALOMY (herbicidal activity in percent) [2]: 100%
- Pre-emergence action ECHCG (herbicidal activity in percent) [3]: 100%
- Pre-emergence action LOLMU (herbicidal activity in percent) [4]: 100%
- Post-emergence effectiveness ALOMY (herbicidal action in percent) [5]: 100%
- Pre-emergence action SETVI (herbicidal activity in percent) [6]: 100%
- Post-emergence effectiveness AVEFA (herbicidal action in percent) [7]: 100%
- Post-emergence effectiveness LOLMU (herbicidal action in percent) [8]: 100%
- Post-emergence effectiveness SETVI (herbicidal action in percent) [9]: 100%
- Post-emergence effectiveness ECHCG (herbicidal action in percent) [10]: 100%

Structure (SMILES): CCc1cc(C)cc(C)c1C1=C(OC(C)=O)C2=CCOCCN2C1=O [Ib-3-4]
- Post-emergence effectiveness ALOMY (herbicidal action in percent) [5]: 90%
- Post-emergence effectiveness AVEFA (herbicidal action in percent) [7]: 80%
- Post-emergence effectiveness LOLMU (herbicidal action in percent) [8]: 80%
- Post-emergence effectiveness SETVI (herbicidal action in percent) [9]: 100%
- Post-emergence effectiveness ECHCG (herbicidal action in percent) [10]: 90%
